Source: patent publication US6696466B1, “Methods of treating select neuronal inflammatory disorders using hydroxyalkylquinolines” (priority 2000, dated 2004)
Where “and” joins values, the source holds several entries; their conditions need not be identical. Identical values can stand only once. Entries after “also recorded” stand apart in the source; their conditions may differ.

Columns and labels:
Assay type in all cases: in vivo, human
[1] = system: Herpes simplex I and II (HSV I and II); assay: Treatment and suppression of cold sores in patients; conditions: for time to resolution of cold sore: Singulair resumed vs the patient's previous sores treated with antivirals
Protocol: Patient had recently discontinued use of Singulair® as a treatment for asthma. […] The cold sore resolved in three days after treatment with Singulair® was resumed. The rate of resolution was faster than the resolution of previous sores which were treated with antiviral treatments such as those marketed under the trademarks Zovirax® or Famvir® (approximately seven to ten days). During the subsequent two years, patient took Singulair® on a daily basis (10 mg, twice a day).
No cold sore was present at the time therapy was started. […] Within five days of termination of treatment, a cold sore developed.

carpal tunnel syndrome = assay: Treatment of patients with carpal tunnel syndrome; conditions: for carpal tunnel symptoms, response to treatment: 10 mg per day, taken orally
Protocol: A carpenter who was experiencing the symptoms of carpal tunnel syndrome was treated with 10 mg of Singulair® per day, taken orally, for four weeks. They continued to perform their daily occupational activities throughout the period of treatment. […] Patient was then treated for short courses of 10 mg of Singulair® per day, whenever symptoms were present, until symptoms subsided.
A patient who worked as a billing clerk had carpal tunnel symptoms which had not responded to non-surgical methods of treatment. Patient was treated with Singulair® at 10 mg daily, taken orally.
A patient who works as a data entry clerk, experienced severe carpal tunnel symptoms. They ceased their occupational activities and began treatment with Singulair® at 10 mg per day, taken orally.
Patient was an insurance clerk who experienced severe carpal tunnel symptoms which had not abated, even after carpal tunnel decompression surgery. For years following surgery, they had experienced severe carpal tunnel symptoms.
Patient was an assembly line worker at an automobile production facility who was experiencing symptoms of carpal tunnel syndrome was treated with 10 mg of Singulair® per day taken orally. […] They required continuous treatment with 10 mg of Singulair® per day taken orally to maintain remission of their symptoms.

cubital tunnel syndrome = assay: Treatment of a patient with cubital tunnel syndrome; conditions: 10 mg daily, taken orally, four weeks; single patient, prior NSAIDs and splints failed
Protocol: Patient was a golfer who experienced symptoms of cubital tunnel syndrome. […] Patient was treated with Singulair® at 10 mg daily, taken orally. […] No further treatment was required despite their return to their regular golfing activity.

thoracic outlet syndrome = assay: Treatment of a patient with thoracic outlet syndrome; conditions: 10 mg per day, taken orally, four weeks; single patient
Protocol: Patient was treated with Singulair® at 10 mg per day taken orally. […] No further treatment was required.

[2] = system: post-herpetic neuralgia due to a latent Herpes infection; assay: Treatment of post-herpetic neuralgia in patients; conditions: 10 mg per day, taken orally; single patient, neuralgia developed despite initial anti-viral agents
Protocol: (§1) Patient had post-herpetic neuralgia due to a latent Herpes infection. Neuralgia developed despite initial treatment with anti-viral agents as per standard treatment recommendations. Patient began treatment with Singulair® (10 mg per day, taken orally). The post-herpetic neuralgia resolved in ten days. No further treatment was required.
as §1, with “had postherpetic” for “had post-herpetic”, “in 14” for “in ten”

[3] = system: natural graying process of scalp hair; assay: Inhibition of graying of scalp hair in a patient; conditions: 10 mg per day, taken orally, two years and four months continuous; single patient with graying of temple regions
Source text: Patient had noted the onset of graying of the temple regions of their hair.

**Q.** How did the “time to resolution of cold sore” value ([1]; single patient) turn out when `Nc1nc2c(ncn2COCCO)c(=O)[nH]1` [Zovirax®] was run?
**A.** seven to ten

**Q.** How did the “carpal tunnel symptoms, response to treatment” value (carpal tunnel syndrome; four weeks, single patient) turn out when `CC(C)(O)c1ccccc1CC[C@@H](SCC1(CC(=O)O)CC1)c1cccc(C=Cc2ccc3ccc(Cl)cc3n2)c1` [Singulair®, 1-(((1(R)-(3-(2-(7-chloro-2-quinolinyl)ethenyl)phenyl)-3-(2-(2-hydroxy-2-propyl)phenyl)propyl)thio)methyl)cyclopropaneacetic acid] was run?
**A.** complete remission of symptoms; also recorded: symptoms had completely resolved

**Q.** And the “carpal tunnel symptoms, response to treatment” value (carpal tunnel syndrome; six weeks, single patient, occupational activities continued)?
**A.** complete resolution of their carpal tunnel symptoms; also recorded: symptoms abated

**Q.** And the “carpal tunnel symptoms after cessation of treatment” value (carpal tunnel syndrome; after treatment was stopped, single patient)?
**A.** the symptoms recurred; also recorded: remained symptom-free thereafter; also recorded: symptoms rapidly returned

**Q.** And the “carpal tunnel symptoms at follow-up” value (carpal tunnel syndrome; follow-up as in each example: forty weeks (Ex. 2), recheck two weeks after return to work on treatment (Ex. 3), continuing treatment (Ex. 4))?
**A.** remains symptom-free

**Q.** What about the “carpal tunnel symptoms on resumption of treatment” value (carpal tunnel syndrome; treatment resumed after relapse, single patient) of the same compound?
**A.** Symptoms abated

**Q.** What about the “cubital tunnel symptoms, response to treatment” value (cubital tunnel syndrome) of the same compound?
**A.** Symptoms were entirely abated

**Q.** And the “thoracic outlet syndrome symptoms, response to treatment” value (thoracic outlet syndrome)?
**A.** symptoms had completely resolved

**Q.** What about the “cold sores under continuous daily treatment” value ([1]; 10 mg per day orally, ten months, patient with history of average two cold sores per month) of the same compound?
**A.** remained free of cold sores

**Q.** And the “development of new cold sore under daily treatment” value ([1]; 10 mg, twice a day, two years, high ultraviolet light exposure, single patient)?
**A.** no new sore developed

**Q.** What about the “time to cold sore after termination of treatment” value ([1]; after ten months of treatment, same patient) of the same compound?
**A.** five

**Q.** And the “time to resolution of cold sore” value ([1]; single patient)?
**A.** three

**Q.** And the “cold sores after resumption of treatment” value ([1]; thirteen months after resumption of treatment, same patient)?
**A.** remained free of cold sores

**Q.** And the “time to resolution of post-herpetic neuralgia” value [2]?
**A.** ten and 14 days

**Q.** What about the “progression of graying of scalp hair” value [3] of the same compound?
**A.** No progression of the graying process

**Q.** With `CC(=O)OCC(CCn1cnc2cnc(N)nc21)COC(C)=O` [Famvir®] as the compound, how does the “time to resolution of cold sore” value ([1]; single patient) read?
**A.** seven to ten
